Results reported in publication PMC9266914, “Broad Spectrum Functional Activity of Structurally Related Monoanionic Au(III) Bis(Dithiolene) Complexes” (International Journal of Molecular Sciences, 2022).
Like-named read-outs stand apart in the source and are kept apart here. Marks after values point to notes of the source that are not given here.

Assays:
[1] = tested on: A2780 ovarian cancer cells; assay: MTT cytotoxicity assay in A2780 (cisplatin sensitive) ovarian cancer cells; format: cell-based, human
Experimental: (§1) Cells were exposed to increasing concentrations of the complexes (0.01–100 μM) for 24 and/or 48 h, at 37 °C. The IC50 values were calculated from dose–response curves using the colorimetric MTT assay. […] Most complexes presented a similar cytotoxicity profile compared to Auranofin, but higher activity compared to Cisplatin, and, most importantly, were active in the Cisplatin-resistant OVCAR8 cells (Table 2).
(§2) The cytotoxic activity of the complexes was evaluated in the A2780 (cisplatin sensitive) (Sigma-Aldrich) and OVCAR8 (cisplatin resistant) (ATCC) ovarian cancer cells. Cells were grown in RPMI-1640 medium (Gibco, Thermo Fisher) supplemented with 10% fetal bovine serum (FBS) and were maintained at 37 °C in a humidified atmosphere with 5% CO2. The complexes were initially dissolved in DMSO and then in culture medium to prepare serial dilutions in the range 10^−9–10^−4 M. After 24 and/or 48 h incubation the cellular viability was measured by the colorimetric MTT assay, as previously described.

C. albicans SC5134 = assay: MIC determination, C. albicans; format: cell-based, Candida albicans; details: RPMIG, 24 h, 35 °C
Description: (§3) The bacterial strains Escherichia coli ATCC25922 and Staphylococcus aureus Newman were used in this work and maintained in Lennox Broth (LB) solid medium, composed of 10 g/L tryptone, 5 g/L yeast extract, 5 g/L NaCl and 20 g/L agar. The fungal strains Candida albicans SC5134 and C. glabrata CBS138 were used in this work and maintained in YPD solid medium, composed of 20 g/L glucose, 20 g/L peptone, 10 g/L yeast extract and 15 g/L agar. The strains were isolated from human infections.
(§4) The antimicrobial activity of the complexes towards the bacterial and fungal strains was assessed by the determination of the Minimal Inhibitory Concentration (MIC) of each complex towards the indicated microbial strains, based on standard methods, and as previously described. […] Serial 1:2 dilutions of stock solutions were prepared for each complex in Mueller–Hinton (MH) broth (Fluka Analytical) or RPMI-1640 medium (Sigma) supplemented with 20 g/L glucose and buffered with 0.165 M morpholinepropanesulphonic acid (RPMIG) to pH 7.0. Solutions prepared with MH were used for testing bacteria, while those prepared with RPMIG were used for testing fungi. For antibacterial activity assays, the final concentrations ranged from 250 to 0.24 μg/mL (when stock solution final concentration was 10 mg/mL), 125 μg/mL to 0.12 μg/mL (when stock solution final concentration was 5 mg/mL) and 62.5 to 0.06 μg/mL (when stock solution final concentration was 2.5 mg/mL). For antifungal assays, the final concentrations ranged from 125 μg/mL to 0.12 μg/mL (when stock solution final concentration was 10 mg/mL), 62.5 to 0.06 μg/mL (when stock solution final concentration was 5 mg/mL) and 31.25 to 0.03 μg/mL (when stock solution final concentration was 2.5 mg/mL). Then, 100 μL aliquots of adequately diluted bacterial suspensions of S. aureus Newman or E. coli ATCC 25922 were mixed with the MH serially diluted complexes aliquots to obtain 5 × 10^5 CFU/mL. In the case of fungi, cultures were diluted to obtain a final optical density of 0.025, measured at 530 nm (OD530). Bacterial suspensions were prepared from cultures grown for 5 h in MH broth at 37 °C and 250 rev·min^−1 and adequately diluted with fresh MH medium, while fungal suspensions were prepared from overnight cultures grown in YPD broth at 30 °C and 250 rev.min^−1 and diluted in buffered RPMIG. After 22 h of incubation at 37 °C (bacteria) or 24 h at 35 °C (fungi), the wells’ content was resuspended by pipetting and the OD640 (bacteria) or OD530 (fungi) were measured in a SPECTROstar Nano microplate reader (BMG Labtech).
(§5) At least three independent experiments were performed in duplicate for each complex under study. […] Positive (no complex) and negative controls (no inoculum) were performed for each experiment. The effect of 5% (V/V) DMSO on microbial growth was also assessed.

C. glabrata CBS138 = assay: MIC determination, C. glabrata; format: cell-based, Candida glabrata; details: RPMIG, 24 h, 35 °C
Description: as §3, §4, §5

S. aureus Newman = assay: MIC determination, S. aureus; format: cell-based, Staphylococcus aureus; details: MH broth, 22 h, 37 °C
Description: as §3, §4, §5

E. coli ATCC25922 = assay: MIC determination, E. coli; format: cell-based, Escherichia coli; details: MH broth, 22 h, 37 °C
Description: as §3, §4, §5

[2] = tested on: OVCAR8 ovarian cancer cells; assay: MTT cytotoxicity assay in OVCAR8 (cisplatin resistant) ovarian cancer cells; format: cell-based, human; details: 48 h incubation
Experimental: as §1, §2

Cyclic voltammetry = format: physicochemical; details: for E1/2 −1/0, first value of cell (anodic peak) / E1/2 −1/0, second value of cell (cathodic peak) / E −2/−1 (reduction of monoanion into dianion) / Epa2 0/+1 / Epc2 0/+1: CH2Cl2, NBu4PF6, Pt, 100 mV.s^−1
Description: The redox properties of the various gold(III) bis(dithiolene) and bis(diselenolene) complexes were investigated by cyclic voltammetry using the same conditions, dichloromethane solutions and NBu4PF6 as supporting electrolyte. Under these conditions, the nature of the counter-ion, Ph4P^+ or Et4N^+, had no influence on the redox properties observed, due to ion exchange with the Bu4N^+ of the supporting electrolyte. Thus, only the result of one monoanion is included in Table 1, even if the two salts were analyzed. For all the investigated monoanionic bis(dithiolene) complexes, three redox processes are observed on the cyclic voltammograms. On the anodic scan, the two oxidation waves correspond to the oxidation of the monoanionic species into the neutral and to the monocationic complex. Most of these complexes had the tendency to deposit on the electrode once oxidized and frequently a strong desorption peak was observed on the reversible scan. This phenomenon occurs essentially for the complex with an exocyclic sulfur atom, [AuSR(=S)]^−1. On the cathodic scan, an irreversible process associated with the reduction in the monoanion into the dianion occurs (Scheme 2). […] The presence of oxygen instead of sulfur makes the oxidation of the monoanionic into the neutral species easier. On the other hand, the presence of electron-withdrawing substituents such as =C(CN)2 induces an anodic shift of the oxidation potentials by 300 mV, compared with the =O derivative, leading to a monoanion which is more difficult to oxidize than the other complexes of the series. […] Indeed, the potential difference between the second and the first oxidation potentials amounts to 470 mV and 410 mV for the =O and the =C(CN)2 derivatives, respectively, while for the =S analogues this value is smaller (170 mV). […] For comparison, we also investigated the redox behavior of Auranofin using the same experimental conditions in CH2Cl2 in the presence of NBu4PF6 as a supporting electrolyte. Using these conditions, upon anodic scan only one irreversible oxidation process is observed at 1.42 V vs. SCE. Therefore, all these monoanionic gold bis(dithiolene) and bis(diselenolene) complexes are easier to oxidize than Auranofin.
All reagents and materials from commercial sources were used without further purification. NMR spectra were recorded at room temperature using CDCl3 unless otherwise stated (Figures S7–S15). Chemical shifts are reported in ppm and ^1H NMR spectra were referenced to residual CHCl3 (7.26 ppm) and ^13C NMR spectra were referenced to CHCl3 (77.2 ppm). Mass spectra were recorded with an Agilent 6510 instrument for organics compounds and with a Thermo-Fisher Q-Exactive instrument for complexes by the Center Régional de Mesures Physiques de l’Ouest, Rennes. Cyclic voltammograms (CV)s were carried out on a 10^−3 M solution of complex in CH2Cl2-[NBu4] [PF6] 0.1 M. CVs were recorded on a Biologic SP-50 instruments at 0.1 Vs^−1 on a platinum disk electrode. Potentials were measured versus KCl Saturated Calomel Electrode (SCE). Column chromatography was performed using silica gel Merck 60 (70–260 mesh). The solvents were purified and dried by standard methods. The proligand 2-SEt(=C(CN2)), [72] and complexes [N][AuSMe(=S)], [73] [N][AuSEt(=S)], [74] [P][AuSEt(=O)], [75] [N][AuSeEt(=S)] [75] and [P][AuSPr(=S)] [76] were synthesized according to the previously reported procedure.

[3] = 24 h incubation, read-out: IC50 A2780, 24 h
[4] = 48 h incubation, read-out: IC50 A2780, 48 h

| Compound | IC50 [1, 3] | IC50 [1, 4] | MIC C. albicans SC5134 (C. albicans SC5134) | MIC C. glabrata CBS138 (C. glabrata CBS138) | MIC S. aureus Newman (S. aureus Newman) | MIC E. coli ATCC25922 (E. coli ATCC25922) | IC50 [2] | E1/2 −1/0, first value of cell (anodic peak) (Cyclic voltammetry) | E1/2 −1/0, second value of cell (cathodic peak) (Cyclic voltammetry) | E −2/−1 (reduction of monoanion into dianion) (Cyclic voltammetry) | Epa2 0/+1 (Cyclic voltammetry) | Epc2 0/+1 (Cyclic voltammetry) | potential difference between the second and the first oxidation potentials (Cyclic voltammetry; CH2Cl2, NBu4PF6) |
| --- | --- | --- | --- | --- | --- | --- | --- | --- | --- | --- | --- | --- | --- |
| CC[N+](CC)(CC)CC.CCn1c2c(sc1=[Se])[Se][Au-]1([Se]c3sc(=[Se])n(CC)c3[Se]1)[Se]2 [[N][AuSeEt(=Se)]] | 26.9 ± 3.02 µM | 4.84 ± 1.6 µM | >31.25 µg/mL | 1.8 ± 0.5 µg/mL | >62.5 µg/mL | >62.5 µg/mL | 13.9 ± 1.61 µM | – | – | – | – | – | – |
| CCCn1c2c(sc1=S)[S][Au-]1([S]c3sc(=S)n(CCC)c3[S]1)[S]2 [[AuSPr(=S)]^−1] | – | – | – | – | – | – | – | 0.56 V vs. SCE | 0.53 V vs. SCE | −0.85 ** V vs. SCE | 0.73 V vs. SCE | 0.64 V vs. SCE | – |
| CCn1c2c(sc1=S)[Se][Au-]1([Se]c3sc(=S)n(CC)c3[Se]1)[Se]2 [[AuSeEt(=S)]^−1] | – | – | – | – | – | – | – | 0.52/− ** V vs. SCE | – | −0.89 ** V vs. SCE | – | – | – |
| CC[N+](CC)(CC)CC.CCn1c2c(sc1=S)[Se][Au-]1([Se]c3sc(=S)n(CC)c3[Se]1)[Se]2 [[N][AuSeEt(=S)]] | 19.2 ± 2.01 µM | 4.32 ± 1.17 µM | >62.5 µg/mL | 1.6 ± 0.8 µg/mL | 5.5 ± 0.3 µg/mL | >125 µg/mL | 29.4 ± 4.2 µM | – | – | – | – | – | – |
| CCCn1c2c(sc1=S)[Se][Au-]1([Se]c3sc(=S)n(CCC)c3[Se]1)[Se]2 [[AuSePr(=S)]^−1] | – | – | – | – | – | – | – | 0.54/− ** V vs. SCE | – | −0.90 V vs. SCE | 0.95/− V vs. SCE | – | – |
| CCn1c2c(sc1=O)[S][Au-]1([S]c3sc(=O)n(CC)c3[S]1)[S]2 [[AuSEt(=O)]^−1] | – | – | – | – | – | – | – | 0.42 V vs. SCE | 0.36 V vs. SCE | −1.05 ** V vs. SCE | 0.89 V vs. SCE | 0.83 V vs. SCE | 470 mV |
| CCCCn1c2c(sc1=S)[S][Au-]1([S]c3sc(=S)n(CCCC)c3[S]1)[S]2 [[AuSBu(=S)]^−1] | – | – | – | – | – | – | – | 0.55 V vs. SCE | 0.50 V vs. SCE | −0.88 ** V vs. SCE | 0.75 V vs. SCE | 0.66 V vs. SCE | – |
